The record followed here is patent publication US20050043381A1, “Aminopyrazole compounds” (AGOURON PHARMACEUTICALS, INC., priority 2003, published 2005).

In one experiment the test system is CA-46 (lymphoma) cells. Briefly: Whole cell checkpoint abrogation assay (CHK1 Mitotic Index ELISA). Conditions: @ 0.5 μM. The format is cell-based. The procedure: To examine the in vitro effects of CHK1 inhibitory compounds, an ELISA assay can be designed to monitor the abrogation of DNA damage-induced checkpoint control. The assay can be based on the trapping and detection of mitotic cells following DNA damage-induced arrest.
CA-46 (lymphoma) cells can be treated with a DNA damaging agent, such as camptothecin (Sigma), at 50 nM for 8 hours to induce DNA damage. The control compound or CHK1 inhibitor can be then added at increasing concentrations with Nocodazole (Sigma) at 0.1 μg/ml and plates can be incubated for 16 hours. Control cells, where only CHK1 inhibitors can be added, can be prepared as well to assure that the inhibitors alone have no effect on the cell cycle. The cells can be then harvested, washed with PBS, and crude acid extraction can be performed. Pellets can be resuspended in 80 μl of Acid Extraction Buffer (10 mM Hepes pH 7.9, 1.5 mM MgCl2, 10 mM KCl, 0.5 mM DTT, 1.5 mM PMSF, 0.4N sulfuric acid), vortexed briefly, and incubated for 30 minutes on ice. Samples can be then centrifuged and 75 μl of the supernatant can be transferred to a 96 well flat-bottom plate (VWR 3596). Next 15 μl Neutralizing Cocktail (# of samples×(10 μl 10N NaOH+5 μl 1M Tris Base) can be added to each well, and after mixing, 5 μl of this can be transferred to another 96 well plate with 100 μl 50 mM Tris base (pH 9.6) in each well. Samples can be dried overnight. The wells can be then washed with 200 μl ELISA wash buffer (PBS with 20 mM Tris pH 7.5, 0.05% Tween 20) 5 times and blocked with 200 μl blocking buffer (PBS with 20 mM Tris pH 7.5, 0.05% Tween 20, 3.5% Dry milk, 1.5% BSA. pH to 7.5 after preparation) for 1 hour at room temperature. Following wash and block, anti-phospho Histone H3 antibodies (Upstate USA, Inc., rabbit polyclonal) can be added at 0.5 μg/ml in block (100 μl per well) and incubated for 2 hours at room temperature. Wells can be washed again to remove unbound primary antibody and 100 μl alkaline phosphatase conjugated secondary antibodies at 0.3 mg/ml (Pierce, goat anti-rabbit IgG ([…]+L)) in block can be added for 1 hour at room temp. Wells can be washed 5 times to remove unbound secondary antibody, and washed again 3 times with PBS alone to remove detergents. Then 100 μl alkaline phosphatase substrate (Pierce 1-Step pNPP) can be added to wells. Plates can be protected from light and incubated at room temp for 1 hour. The OD can be read on Molecular Devices Vmax Kinetic Microplate Reader at 405 nm. The ratio of the OD (optical density) of a compound treated sample to the Nocodazole only treated sample (about 100% mitotic or abrogation) can be expressed in a percentage, and quantifies the percent abrogation of the checkpoint. The concentration at which a compound causes 50% abrogation of the checkpoint can be called the EC50. The raw OD values can be graphed in Excel, and an EC50 value can be generated using Kaleidograph software. Strong signal results from Nocodazole only treated cells, and equals 100% mitosis in this assay. Camptothecin+Nocodazole treated control samples have low signal, signifying no mitosis and therefore, no checkpoint abrogation. When potent CHK1 inhibitors are added to Camptothecin treated cells with Nocodazole, a high signal can be generated (generally in a dose dependent manner), due to the checkpoint abrogation activity caused by the combination treatment.

Experiment [1] deals with T1, full-length human CHK1 (FL-CHK1) (Homo sapiens, UniProt O14757).
T1 construct: C-terminally His-tagged full-length human CHK1 (FL-CHK1); 6xHis (C); made in house
T1 sequence (O14757 1-476): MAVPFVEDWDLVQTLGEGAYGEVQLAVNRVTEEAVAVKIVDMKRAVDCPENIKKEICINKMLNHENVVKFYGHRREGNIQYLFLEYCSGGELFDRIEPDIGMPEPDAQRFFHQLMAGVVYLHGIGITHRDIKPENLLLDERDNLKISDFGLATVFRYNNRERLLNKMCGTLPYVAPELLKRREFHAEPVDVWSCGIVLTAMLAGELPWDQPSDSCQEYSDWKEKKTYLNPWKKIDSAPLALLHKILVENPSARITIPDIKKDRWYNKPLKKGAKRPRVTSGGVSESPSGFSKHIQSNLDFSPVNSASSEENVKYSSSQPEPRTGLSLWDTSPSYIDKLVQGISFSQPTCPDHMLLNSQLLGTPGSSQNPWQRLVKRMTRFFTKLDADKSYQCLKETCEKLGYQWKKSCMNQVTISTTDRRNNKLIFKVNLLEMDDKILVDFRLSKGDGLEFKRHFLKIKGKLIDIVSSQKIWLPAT
Nature of the experiment: FL-CHK1 assay (coupled spectrophotometric, Syntide-2). Conditions: FL-CHK1, 0.15 mM ATP. The format is biochemical. From the text: C-terminally His-tagged full-length human CHK1 (FL-CHK1) was expressed using the baculovirus/insect cell system. It contains 6 histidine residues (6 x His-tag) at the C-terminus of the 476 amino acid human CHK1. The protein was purified by conventional chromatographic techniques.
The production of ADP from ATP that accompanies phosphoryl transfer to the synthetic substrate peptide Syntide-2 (PLARTLSVAGLPGKK) was coupled to oxidation of NADH using phosphoenolpyruvate (PEP) through the actions of pyruvate kinase (PK) and lactic dehydrogenase (LDH). The oxidation of NADH was monitored by following the decrease of absorbance at 340 nm (ε340=6.22 cm^−1 mM^−1) using a HP8452 spectrophotometer. Typical reaction solutions contained: […] PEP; 0.15 mM NADH; 28 units of LDH/mL; 16 units of PK/mL; 3 mM DTT; 0.125 mM Syntide-2; 0.15 mM ATP; 25 mM MgCl2 in 50 mM TRIS, pH 7.5; and 400 mM NaCl. Assays were initiated with 10 nM of FL-CHK1. Ki values were determined by measuring initial enzyme activity in the presence of varying concentrations of test compounds. The data were analyzed using Enzyme Kinetic and Kaleidagraph software. […]

In the case of `CNC(=S)c1ccc(Nc2cc(-c3ccc(-c4ccc(O)cc4O)cc3)n[nH]2)cn1` [Example 16, 5-[5-(2′,4′-Dihydroxy-biphenyl-4-yl)-2H-Pyrazol-3-ylamino]-pyridine-2-carbothioic acid methylamide], in the experiment on CA-46 (lymphoma) cells, the “percent abrogation of the checkpoint” value is reported as 10% @ 0.5 μM. The molecule also yielded a Ki in experiment [1] of 1 to 10 nM.

On to `Oc1ccc(-c2ccc(-c3cc(Nc4ccncc4)[nH]n3)cc2)c(O)c1` [Example 19, 4′-[5-(pyridin-4-ylamino)-1H-pyrazol-3-yl]-1,1′-biphenyl-2,4-diol], for which, in the experiment with CA-46 (lymphoma) cells, the “percent abrogation of the checkpoint” value was determined as 14% @ 0.5 μM. In experiment [1], the inhibitory constant (Ki) fell in the range of 1 to 10 nM.

What is called Ki is a measure of affinity in units of concentration, obtained from inhibition or displacement. A low value points to a stronger hold on the target.
